From patent US10961200B2, “Small molecule inhibitors of lactate dehydrogenase and methods of use thereof” (THE UNITED STATES OF AMERICA, AS REPRESENTED BY THE …, priority 2014, dated 2021) come the findings set out here.

The term IC50 denotes the concentration needed to halve the response being measured.

The first test addresses Human LDHA (Homo sapiens (Human), UniProt P00338). Nature of the test: human LDHA primary biochemical assay (resazurin/diaphorase coupled, fluorescence). Conditions: LDHA inhibitory activity, activity level based on IC50 (Table 7). An excerpt:
Test compounds were placed in a Greiner Bio-One (Monroe, N.C.) 1536-well black solid bottom assay plate. 200 millimolar (mM) Tris HCl, pH 7.4, 100 micromolar […] EDTA and 0.01% TWEEN-20™, final concentration, was used as the assay buffer. The LDHA reagent was 2 nanomolar (nM) Human LDHA (Meridian Life Science, Inc., Memphis, Tenn.), final concentration, in assay buffer.
A general note: Alamar Blue is a resazurin reagent that responds to reducing activity.
For `CCCCC#Cc1cc(-c2nn(-c3nc(C(=O)O)cs3)c(CC3CC3)c2Cc2ccc(S(N)(=O)=O)c(F)c2)ccc1F` [Compound 540, 2-(5-(cyclopropylmethyl)-3-(4-fluoro-3-(hex-1-yn-1-yl)phenyl)-4-(3-fluoro-4-sulfamoylbenzyl)-1H-pyrazol-1-yl)thiazole-4-carboxylic acid], the IC50 is less than 100 nM.

`CCc1cccc(-c2cc(-c3nn(-c4nc(C(=O)O)cs4)cc3Cc3ccc(S(N)(=O)=O)cc3)ccc2F)c1` [Compound 513, 2-(3-(3′-ethyl-6-fluoro-[1,1′-biphenyl]-3-yl)-4-(4-sulfamoylbenzyl)-1H-pyrazol-1-yl)thiazole-4-carboxylic acid]: the IC50 was in the range of 100 to 1000 nM.

For `CC(C)CC#Cc1cc(-c2nn(-c3nc(C(=O)O)cs3)c(CC3CC3)c2Cc2ccc(S(N)(=O)=O)c(F)c2)ccc1F` [Compound 538, 2-(5-(cyclopropylmethyl)-3-(4-fluoro-3-(4-methylpent-1-yn-1-yl)phenyl)-4-(3-fluoro-4-sulfamoylbenzyl)-1H-pyrazol-1-yl)thiazole-4-carboxylic acid], the IC50 was less than 100 nM.

Consider `NS(=O)(=O)c1ccc(Cc2c(-c3cccc(-c4ccc(F)cc4)c3)nn(-c3nc(C(=O)O)cs3)c2C2CC2)cc1F` [Compound 349], for which the IC50 was less than 100 nM.

Take `NS(=O)(=O)c1ccc(Cc2cn(-c3nc(C(=O)O)cs3)nc2-c2cccc(Oc3ccccc3)c2)cc1` [Compound 464, 2-(3-(3-phenoxyphenyl)-4-(4-sulfamoylbenzyl)-1H-pyrazol-1-yl)thiazole-4-carboxylic acid]: the IC50 was less than 100 nM.

The compound `NS(=O)(=O)c1ccc(Cc2c(-c3cccc4ccccc34)nn(-c3nc(C(=O)O)cs3)c2O)cc1` [Compound 451] showed an IC50 of 1000 to 57000 nM.

`CCOC(=O)c1csc(-n2nc(-c3ccc(F)c(C#CC4CCCC4)c3)c(Cc3cccc(S(N)(=O)=O)c3)c2CC2CC2)n1` [Compound 536, ethyl 2-(3-(3-(cyclopentylethynyl)-4-fluorophenyl)-5-(cyclopropylmethyl)-4-(3-sulfamoylbenzyl)-1H-pyrazol-1-yl)thiazole-4-carboxylate]: the 50% inhibitory concentration (IC50) was greater than 57000 nM.

Staying with this test, now noted: LDHA inhibitory activity, assay of Example 1; activity level classes.
For `N[S+](=O)([O-])c1ccc(Cc2c(-c3cccc(-c4cccc(F)c4)c3)nn(-c3nc(C(=O)O)cs3)c2C(F)(F)F)cc1` [Compound 313], the IC50 was less than 100 nM.

With `CC(=O)Nc1c(-c2ccccc2)nn(-c2nc(C(=O)O)cs2)c1O` [Compound 126, 2-(4-acetamido-5-hydroxy-3-phenyl-1H-pyrazol-1-yl)thiazole-4-carboxylic acid], the IC50 is greater than 57000 nM.

`O=C(O)c1csc(-n2nc(-c3c(F)cccc3F)cc2O)n1` [Compound 100, 2-(3-(2,6-difluorophenyl)-5-hydroxy-1H-pyrazol-1-yl)thiazole-4-carboxylic acid]: the IC50 is greater than 57000 nM.

For the compound `O=C(OCCN1CCOCC1)c1csc(-n2nc(-c3ccc(F)c(F)c3)cc2O)n1` [Compound 106, 2-morpholinoethyl 2-(3-(3,4-difluorophenyl)-5-hydroxy-1H-pyrazol-1-yl)thiazole-4-carboxylate], the IC50 was greater than 57000 nM.

For `NS(=O)(=O)c1ccc(Cc2cn(-c3nc(C(=O)O)cs3)c3ccc(-c4ccccc4F)cc23)cc1` [Compound 195, 2-(5-(2-fluorophenyl)-3-(4-sulfamoylbenzyl)-1H-indol-1-yl)thiazole-4-carboxylic acid], the IC50 is less than 100 nM.

`CCOC(=O)c1csc(-n2nc(-c3ccc(F)c(-c4cccc(F)c4)c3)c(Cc3ccc(S(N)(=O)=O)cc3F)c2CC2CC2)n1` [Compound 316] showed an IC50 of 1000 to 57000 nM.

Compound `CCOC(=O)c1csc(-n2nc(CC3CC3)c(Cc3ccc(S(N)(=O)=O)cc3F)c2-c2ccc(F)c(-c3cccc(F)c3)c2)n1` [Compound 315] returned an IC50 greater than 57000 nM.

`CS(=O)(=O)c1cccc(-c2cc(O)n(-c3nc(C(=O)O)cs3)n2)c1` [Compound 92, 2-(5-hydroxy-3-(3-(methylsulfonyl)phenyl)-1H-pyrazol-1-yl)thiazole-4-carboxylic acid] had an IC50 greater than 57000 nM.

In the case of `COc1cccc(-c2cc(-c3nn(-c4nc(C(=O)O)cs4)c(CC4CC4)c3Cc3ccc(S(N)(=O)=O)cc3F)ccc2F)c1` [Compound 328], the IC50 was less than 100 nM.

The compound `Cc1ccc(-c2cc(-c3nn(-c4nc(C(=O)O)cs4)c(C(F)(F)F)c3Cc3ccc(S(N)(=O)=O)cc3)ccc2F)cc1` [Compound 243] came in with an IC50 of less than 100 nM.

The compound `Cn1ncc(C(=O)n2nc(-c3ccccc3)c(Cc3ccc(S(N)(=O)=O)cc3)c2N)c1N` [Compound 143, 4-((5-amino-1-(5-amino-1-methyl-1H-pyrazole-4-carbonyl)-3-phenyl-1H-pyrazol-4-yl)methyl)benzenesulfonamide] showed a half-inhibitory concentration (IC50) greater than 57000 nM.

In the case of `NS(=O)(=O)c1ccc(CNc2cn(-c3nc(C(=O)O)cs3)nc2-c2ccccc2)cc1` [Compound 142, 2-(3-phenyl-4-((4-sulfamoylbenzyl)amino)-1H-pyrazol-1-yl)thiazole-4-carboxylic acid], the IC50 was greater than 57000 nM.

Regarding `O=C(O)c1csc(-n2nc(-c3ccc(NS(=O)(=O)C4CC4)c(F)c3)cc2O)n1` [Compound 111, 2-(3-(4-(cyclopropanesulfonamido)-3-fluorophenyl)-5-hydroxy-1H-pyrazol-1-yl)thiazole-4-carboxylic acid], the IC50 was greater than 57000 nM.

For the compound `CCOC(=O)c1csc(-n2nc(-c3ccc(F)c(-c4cccc(F)c4)c3)c(Cc3ccc(S(N)(=O)=O)c(F)c3)c2CC2CC2)n1` [Compound 318], the IC50 was greater than 57000 nM.

Compound `O=C(Oc1ccc2c(c1)CCC2)c1csc(-n2nc(-c3ccc(F)c(F)c3)cc2O)n1` [Compound 108, 2,3-dihydro-1H-inden-5-yl 2-(3-(3,4-difluorophenyl)-5-hydroxy-1H-pyrazol-1-yl)thiazole-4-carboxylate] displayed an IC50 greater than 57000 nM.

For `CCOC(=O)c1csc(-n2nc(-c3ccc(F)c(-c4ccc(F)cc4)c3)c(Cc3ccc(S(N)(=O)=O)c(F)c3)c2C2CC2)n1` [Compound 246], the IC50 lay in the range of 1000 to 57000 nM.

The same test, now with this note: read-out: Inhibitory activity IC50.
Take `NS(=O)(=O)c1ccc(Cc2c(-c3ccccc3)nn(-c3nc(C(=O)O)cs3)c2C#Cc2ccccc2)cc1` [Compound 179, 2-(3-phenyl-5-(phenylethynyl)-4-(4-sulfamoylbenzyl)-1H-pyrazol-1-yl)thiazole-4-carboxylic acid]: the concentration for half-maximal inhibition (IC50) lay in the range of 1000 to 57000 nM.

For the compound `NS(=O)(=O)c1ccc(Cc2c(-c3ccccc3)nn(-c3nc(C(=O)O)cs3)c2Cc2ccccc2)cc1` [Compound 185, 2-(5-benzyl-3-phenyl-4-(4-sulfamoylbenzyl)-1H-pyrazol-1-yl)thiazole-4-carboxylic acid], the IC50 was 100 to 1000 nM.

Regarding `O=C(O)c1csc(-n2nc(-c3ccccc3)cc2O)n1` [Compound 91, 2-(5-hydroxy-3-phenyl-1H-pyrazol-1-yl)thiazole-4-carboxylic acid], the IC50 was greater than 57000 nM.

In the case of `Cn1cc(-c2cc(-c3c(Cc4ccc(S(N)(=O)=O)c(F)c4)c(CC4CC4)nn3-c3nc(C(=O)O)cs3)ccc2F)cn1` [Compound 218, 2-(3-(cyclopropylmethyl)-5-(4-fluoro-3-(1-methyl-1H-pyrazol-4-yl)phenyl)-4-(3-fluoro-4-sulfamoylbenzyl)-1H-pyrazol-1-yl)thiazole-4-carboxylic acid], the IC50 is greater than 57000 nM.

For `NS(=O)(=O)c1ccc(Cc2c(-c3ccccc3)nn(-c3nc(C(=O)O)cs3)c2C2CCCC2)cc1` [Compound 175, 2-(5-cyclopentyl-3-phenyl-4-(4-sulfamoylbenzyl)-1H-pyrazol-1-yl)thiazole-4-carboxylic acid], the half-maximal inhibitory concentration (IC50) lay within 100 to 1000 nM.
